Key:
[1] = Inhibition of advanced glycation end product formation assessed as CML level at 1 mM after 7 days in 0.1 M phosphate buffer at pH 7.4 by ELISA relative to control; format: physicochemical; conditions: pH 7.4, 168 h, 1000 µM
[2] = Inhibition of alpha-amylase at 1 mM after 15 mins by dinitrosalicylic acid method relative to control

Structure (SMILES)	inhibition (INH) [1] [%]	inhibition [2] [%]
Oc1cc(O)cc(Oc2c(O)cc(O)c3c2Oc2c(O)cc(Oc4c(O)cc(Oc5c(O)cc(O)c6c5Oc5c(O)cc(O)cc5O6)cc4O)cc2O3)c1 [DIECKOL]	86.7	97.5
N=C(N)NN [PIMAGEDINE]	76	
Oc1cc(O)cc(Oc2c(O)cc(O)c3c2Oc2c(O)cc(O)cc2O3)c1 [ECKOL]	96.2	87.5
